How the values were obtained:
hCA II = hCA II (Homo sapiens, UniProt P00918); test: CA inhibition assay, stopped-flow CO2 hydration
From the text: (§1) An SX.18 MV-R Applied Photophysics (Oxford, UK) stopped-flow instrument has been used to assay the catalytic/inhibition of various CA isozymes[51]. […] The inhibition constants were obtained by non-linear least-squares methods using the Cheng–Prusoff equation, as reported earlier[39] and represent the mean from at least three different determinations. All CA isozymes used here were recombinant proteins obtained as reported earlier by our group[27]^,[32]^,[40]^,[52].

hCA VII = hCA VII (Homo sapiens, UniProt P43166); test: CA inhibition assay, stopped-flow CO2 hydration
From the text: as §1

hCA IX = hCA IX (Homo sapiens, UniProt Q16790); test: CA inhibition assay, stopped-flow CO2 hydration
From the text: as §1

hCA I = hCA I (Homo sapiens, UniProt P00915); test: CA inhibition assay, stopped-flow CO2 hydration
Chain of hCA I (P00915 whole entry): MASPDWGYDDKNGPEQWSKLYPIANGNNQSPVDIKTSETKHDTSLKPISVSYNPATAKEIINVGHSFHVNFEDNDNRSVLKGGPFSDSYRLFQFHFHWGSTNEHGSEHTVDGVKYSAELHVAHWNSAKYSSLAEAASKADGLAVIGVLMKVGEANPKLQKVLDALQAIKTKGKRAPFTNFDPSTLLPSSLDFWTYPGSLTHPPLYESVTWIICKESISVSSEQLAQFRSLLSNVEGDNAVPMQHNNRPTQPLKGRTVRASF
From the text: as §1

Chain of hCA VII (P43166 whole entry): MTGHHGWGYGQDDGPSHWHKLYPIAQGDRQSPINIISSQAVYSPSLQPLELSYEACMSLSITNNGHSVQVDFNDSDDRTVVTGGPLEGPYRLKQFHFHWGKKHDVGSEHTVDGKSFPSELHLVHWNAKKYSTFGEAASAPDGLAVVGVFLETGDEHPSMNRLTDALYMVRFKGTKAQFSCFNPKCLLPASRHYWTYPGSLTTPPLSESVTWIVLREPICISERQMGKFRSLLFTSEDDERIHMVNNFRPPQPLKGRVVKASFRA

melting point	Ki (hCA II)	Ki (hCA VII)	Ki (hCA IX)	Ki (hCA I)	Structure (SMILES)
100 °C	> 10 µM	> 10 µM	182 nM	> 10 µM	CN(C)CCCNC(=S)NC(=O)c1cc2ccccc2oc1=O [e20, N-((3-(dimethylamino)propyl)carbamothioyl)-2-oxo-2H-chromene-3-carboxamide]
143 °C	> 10 µM	> 10 µM	376 nM	> 10 µM	CCN(CC)C(=S)NC(=O)c1cc2ccccc2oc1=O [e3, N-(diethylcarbamothioyl)-2-oxo-2H-chromene-3-carboxamide]
	> 10 µM	> 10 µM	130 nM	> 10 µM	O=C(NC(=S)NC1Cc2ccccc2C1)c1cc2ccccc2oc1=O [e10, N-((2,3-dihydro-1H-inden-2-yl)carbamothioyl)-2-oxo-2H-chromene-3-carboxamide]
146 to 148 °C	> 10 µM	> 10 µM	323 nM	> 10 µM	CNC(=S)NC(=O)c1cc2ccccc2oc1=O [e1, N-(methylcarbamothioyl)-2-oxo-2H-chromene-3-carboxamide]
150 to 151 °C	> 10 µM	> 10 µM	351 nM	> 10 µM	CC(C)N(C(=S)NC(=O)c1cc2ccccc2oc1=O)C(C)C [e4, N-(diisopropylcarbamothioyl)-2-oxo-2H-chromene-3-carboxamide]
123 to 125 °C	> 10 µM	> 10 µM	136 nM	> 10 µM	O=C(NC(=S)N1CCOCC1)c1cc2ccccc2oc1=O [e9, N-(morpholine-4-carbonothioyl)-2-oxo-2H-chromene-3-carboxamide]
204 °C	> 10 µM	> 10 µM	259 nM	> 10 µM	CN1CCN(NC(=S)NC(=O)c2cc3ccccc3oc2=O)CC1 [e17, N-((4-methylpiperazin-1-yl)carbamothioyl)-2-oxo-2H-chromene-3-carboxamide]
188 to 190 °C	> 10 µM	> 10 µM	184 nM	> 10 µM	O=C(NC(=S)NCc1ccc2c(c1)OCO2)c1cc2ccccc2oc1=O [e15, N-((benzo[d][1,3]dioxol-5-ylmethyl)carbamothioyl)-2-oxo-2H-chromene-3-carboxamide]
162 to 164 °C	> 10 µM	> 10 µM	128 nM	> 10 µM	CN1CCN(C(=S)NC(=O)c2cc3ccccc3oc2=O)CC1 [e8, N-(4-methylpiperazine-1-carbonothioyl)-2-oxo-2H-chromene-3-carboxamide]
206 °C	> 10 µM	> 10 µM	387 nM	> 10 µM	O=C(NC(=S)NN1CCCCC1)c1cc2ccccc2oc1=O [e18, 2-oxo-N-(piperidin-1-ylcarbamothioyl)-2H-chromene-3-carboxamide]
148 to 149 °C	> 10 µM	> 10 µM	196 nM	> 10 µM	COc1ccc(CCNC(=S)NC(=O)c2cc3ccccc3oc2=O)cc1OC [e14, N-((3,4-dimethoxyphenethyl)carbamothioyl)-2-oxo-2H-chromene-3-carboxamide]
175 to 176 °C	> 10 µM	> 10 µM	202 nM	> 10 µM	O=C(NC(=S)N1CCCCC1)c1cc2ccccc2oc1=O [e7, 2-oxo-N-(piperidine-1-carbonothioyl)-2H-chromene-3-carboxamide]
136 to 138 °C	> 10 µM	> 10 µM	224 nM	> 10 µM	O=C(NC(=S)NCCN1CCOCC1)c1cc2ccccc2oc1=O [e12, N-((2-morpholinoethyl)carbamothioyl)-2-oxo-2H-chromene-3-carboxamide]
163 to 165 °C					O=C(NC(=S)NCCN1CCNCC1)c1cc2ccccc2oc1=O [e19, 2-oxo-N-((2-(piperazin-1-yl)ethyl)carbamothioyl)-2H-chromene-3-carboxamide]
	> 10 µM	> 10 µM	115 nM	> 10 µM	O=C(NC(=S)NC1CCCCC1)c1cc2ccccc2oc1=O [e5, N-(cyclohexylcarbamothioyl)-2-oxo-2H-chromene-3-carboxamide]
180 to 182 °C	> 10 µM	> 10 µM	2590 nM	> 10 µM	O=C(NC(=S)NN1CCOCC1)c1cc2ccccc2oc1=O [e16, N-(morpholinocarbamothioyl)-2-oxo-2H-chromene-3-carboxamide]
123 °C	> 10 µM	> 10 µM	286 nM	> 10 µM	CCCNC(=S)NC(=O)c1cc2ccccc2oc1=O [e2, 2-oxo-N-(propylcarbamothioyl)-2H-chromene-3-carboxamide]
162 to 163 °C	> 10 µM	> 10 µM	298 nM	> 10 µM	O=C(NC(=S)N1CCCC1)c1cc2ccccc2oc1=O [e6, 2-oxo-N-(pyrrolidine-1-carbonothioyl)-2H-chromene-3-carboxamide]
131 to 132 °C	> 10 µM	> 10 µM	108 nM	> 10 µM	O=C(NC(=S)NCCN1CCCC1)c1cc2ccccc2oc1=O [e11, 2-oxo-N-((2-(pyrrolidin-1-yl)ethyl)carbamothioyl)-2H-chromene-3-carboxamide]
142 to 143 °C	> 10 µM	> 10 µM	180 nM	> 10 µM	O=C(NC(=S)NCCC1=CCCCC1)c1cc2ccccc2oc1=O [e13, N-((2-(cyclohex-1-en-1-yl)ethyl)carbamothioyl)-2-oxo-2H-chromene-3-carboxamide]

Reference: article PMC6009903, “Synthesis, biological activity and multiscale molecular modeling studies for coumaryl-carboxamide derivatives as selective carbonic anhydrase IX inhibitors” (Journal of Enzyme Inhibition and Medicinal Chemistry, 2017)
